Assay results published in PMC8653682, “Anti-Helicobacter pylori Compounds from Oliveria decumbens Vent. through Urease Inhibitory In-vitro and In-silico Studies” (Iranian Journal of Pharmaceutical Research : IJPR, 2021).
Converted amounts (≈) assume the structure as drawn. Read-outs that look alike come from different tables or passages of the source.

What was measured:
[1] = system: Helicobacter pylori strain RIGLD-HC180; test: Anti-Helicobacter pylori activity by agar dilution method; assay type: cell-based; settings: RIGLDHC180, 72 h, tested 50 to 2000 μg/mL, read-out: MIC for the growth of Helicobacter pylori
Protocol: Anti-Helicobacter pylori activity of the samples was investigated by an agar dilution method according to our previous study ([17]). […] The Agar dilution method has been standardized previously as an appropriate method to determine minimum inhibitory concentrations (MIC) of water-insoluble and colored plant extracts. […] Growth control plates were included in each experiment. […] All the experiments were performed in triplicate. Plates, including amoxicillin, were used as a positive control ([17]).

Jack bean urease = biological target: T1, Jack bean urease (Canavalia ensiformis, UniProt P07374); test: biochemical; assay type: biochemical
T1 construct: purchased Sigma-Aldrich
Protocol: Urease inhibitory activity was evaluated based on Tanaka et al. report ([18]). Jack bean urease (Sigma-Aldrich, Germany) was used as a surrogate for H. pylori urease. Each well of a 96-well plate contained 25 μL jack bean urease (6U, Sigma-Aldrich) and 25 μL different concentrations of tested materials that were prepared in phosphate buffer (PBS, pH 6.8 ) and DMSO 1% as a co-solvent. After 30 min incubation at room temperature, 200 μL of a stock solution composed of PBS (100 mM), urea (150 mM), and phenol red were added to each well. The absorbance changes were measured at 570 nm by a microplate reader. Hydroxyurea was used as the positive control ([18]).

bacteria = system: bacteria; set-up: method as in earlier work; settings: combination with norfloxacin, ofloxacin and ciprofloxacin; ref 42 (Falcão‐Silva et al.); cited from earlier work
[2] = system: Escherichia coli ATCC 8739; test: Antibacterial activity by disc diffusion method, E. coli; assay type: cell-based; settings: extract/fractions 500 µg/disc, ciprofloxacin 5 µg/disc, penicillin 10 µg/disc
Protocol: (§1) Briefly, overnight cultures of bacteria were used to prepare a bacterial inoculum in sterile normal saline. The bacterial inoculum was standardized to the turbidity of 0.5 McFarland (the density equivalent to 1.5 × 10^8 cfu/mL). The surface of Mueller-Hinton (MH) agar plates was covered by 100 µL of diluted bacterial suspension containing 5 ×10^5 cfu. Different concentrations of the plant extract or fraction were prepared. Sterile blank discs (6.4 mm diameter) containing different concentrations of the plant extract or fractions (15 μL) were placed on the agar plates. The mean inhibition zone diameter was measured after overnight incubation at 37 °C.

[3] = system: Staphylococcus aureus ATCC 6538; test: Antibacterial activity by disc diffusion method, S. aureus; assay type: cell-based; settings: extract/fractions 500 µg/disc, ciprofloxacin 5 µg/disc, penicillin 10 µg/disc
Protocol: as §1

[4] = system: Staphylococcus epidermidis ATCC 12229; test: Antibacterial activity by disc diffusion method, S. epidermidis; assay type: cell-based; settings: extract/fractions 500 µg/disc, ciprofloxacin 5 µg/disc, penicillin 10 µg/disc
Protocol: as §1

T1 sequence (P07374 whole entry, looked up): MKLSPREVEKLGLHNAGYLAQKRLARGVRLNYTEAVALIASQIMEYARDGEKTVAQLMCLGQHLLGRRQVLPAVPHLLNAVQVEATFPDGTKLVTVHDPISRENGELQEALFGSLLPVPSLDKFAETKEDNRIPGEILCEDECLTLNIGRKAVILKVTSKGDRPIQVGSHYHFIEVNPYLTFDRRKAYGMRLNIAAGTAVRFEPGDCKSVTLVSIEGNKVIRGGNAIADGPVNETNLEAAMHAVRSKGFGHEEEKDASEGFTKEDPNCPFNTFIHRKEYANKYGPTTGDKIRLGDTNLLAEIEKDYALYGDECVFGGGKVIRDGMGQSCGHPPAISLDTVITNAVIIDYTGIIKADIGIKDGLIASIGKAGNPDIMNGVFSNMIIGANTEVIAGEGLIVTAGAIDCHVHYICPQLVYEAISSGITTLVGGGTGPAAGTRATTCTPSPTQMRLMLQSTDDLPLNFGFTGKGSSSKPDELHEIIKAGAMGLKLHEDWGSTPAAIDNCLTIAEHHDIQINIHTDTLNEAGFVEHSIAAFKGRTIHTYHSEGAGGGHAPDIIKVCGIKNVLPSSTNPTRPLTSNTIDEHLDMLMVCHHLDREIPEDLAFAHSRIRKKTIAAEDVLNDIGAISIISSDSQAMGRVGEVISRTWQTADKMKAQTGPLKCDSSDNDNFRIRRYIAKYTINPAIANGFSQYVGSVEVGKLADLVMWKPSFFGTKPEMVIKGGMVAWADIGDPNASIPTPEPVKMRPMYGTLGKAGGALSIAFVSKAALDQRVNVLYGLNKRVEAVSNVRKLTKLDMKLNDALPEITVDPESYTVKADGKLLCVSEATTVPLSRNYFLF

Compound: CC1(C)S[C@@H]2[C@H](NC(=O)[C@H](N)c3ccc(O)cc3)C(=O)N2[C@H]1C(=O)O [Amoxicillin, amoxicillin]
- MIC [1]: 0.5 µg/mL (≈ 1.37 µM)

Compound: Cc1ccc(C(C)C)cc1O [Carvacrol]
- IC50 (Jack bean urease): 0.7 ± 0.01 mM

Compound: NC(=O)NO [Hydroxyurea]
- IC50 (Jack bean urease; isolated compounds, jack bean urease, read-out: Urease inhibitory IC50 (mM) ± SD): 0.78 ± 0.01 mM
- Urease inhibitory IC50 (µg/mL) ± SD (Jack bean urease; total extract and fractions, jack bean urease): 59.51 ± 0.01 µg/mL

Compound: Cc1ccc(C(C)C)c(O)c1 [Thymol]
- IC50 (Jack bean urease): 1.33 ± 0.06 mM

Compound: O=C(/C=C/c1ccc(O)cc1)OC[C@H]1O[C@@H](Oc2c(-c3ccc(O)cc3)oc3cc(O)cc(O)c3c2=O)[C@H](O)[C@@H](O)[C@@H]1O [Tiliroside, Kaempferol-3-O-(6''-O-trans-coumaryl) glucoside]
- Lowering of antibiotic MIC values in combination with tiliroside (bacteria): 2-16 fold
- IC50 (Jack bean urease): 0.45 ± 0.05 mM

Compound: penicillin
- Inhibition zone, E. coli [2]: 10 mm
- Inhibition zone, S. aureus [3]: 24 mm
- Inhibition zone, S. epidermidis [4]: 26 mm
